Results on three compounds are retold here after patent US20100144886A1, “METHOD FOR TREATING PULMONARY ARTERIAL HYPERTENSION” (AGI Therapeutics Research Limited, priority 2006, published 2010).

Read-outs that look alike come from different tables or passages of the source.

The subject of assay [1] is T1, melatonin ML-1.
T1 construct: other: chicken brain; other: at 100×10^−7 M
Kind of assay: Melatonin ML1 binding affinity. The arrangement: species or system chicken. Here is the method: (§1) Each of those receptors was analyzed by methods known in the art. Initial assessment of binding at 100×10^−7 M (10 micro molar) was performed in duplicate.

Assay [2] has as its target melatonin ML-1. Kind of assay: Melatonin ML1 binding affinity. The arrangement: species or system chicken. The conditions noted are these: relative potency compared to CCB, Table 2. Here is the method: as §1
Assay [3] has as its target T2, 5-HT2B receptor (Homo sapiens, UniProt P41595). Nature of the assay: 5-HT2B binding affinity of racemic verapamil and other calcium channel blockers (5-HT control, Bonhaus method). On the set-up: expressed in transfected cells; host or cells: CHO cells. Conditions: relative potency compared to CCB, Table 2. Here is the method: as §1
Assay [4] has as its target L-type calcium channel binding (CCB) site (Rattus norvegicus, UniProt P22002). Kind of assay: L-type calcium channel binding (CCB) affinity. The conditions noted are these: rat cerebral cortex; relevant L-type calcium channel site of each blocker. Here is the method: as §1
The binding activity of the reported receptors was analyzed using the following methods.
There are three distinct binding sites on the L-type calcium channel receptor. Further, the binding affinity at a particular site can be allosterically modulated by binding at one of the other sites. Thus, testing included the affinity of the different types of calcium channel blockers at their particular site of interaction.

The target in another assay is 5-HT4E receptor (Homo sapiens, UniProt Q13639). Conditions: at 100×10^−7 M. Here is the method:
as §1

In a further assay the target is 5-HT1D receptor (Homo sapiens, UniProt P28221). Conditions: at 100×10^−7 M. Here is the method: as §1
5-HT1D receptor, sequence (P28221 whole entry): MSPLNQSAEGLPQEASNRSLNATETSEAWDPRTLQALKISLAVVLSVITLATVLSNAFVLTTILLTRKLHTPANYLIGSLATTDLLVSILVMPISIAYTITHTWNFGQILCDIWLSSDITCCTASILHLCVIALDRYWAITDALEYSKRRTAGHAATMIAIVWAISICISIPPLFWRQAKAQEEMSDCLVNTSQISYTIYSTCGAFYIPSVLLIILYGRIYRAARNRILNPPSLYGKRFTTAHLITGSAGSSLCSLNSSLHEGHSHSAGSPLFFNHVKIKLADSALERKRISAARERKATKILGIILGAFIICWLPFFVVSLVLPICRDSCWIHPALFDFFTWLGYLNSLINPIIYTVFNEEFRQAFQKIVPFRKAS
For a further assay, the target named is 5-HT6 receptor (Homo sapiens, UniProt P50406). Conditions: at 100×10^−7 M. Here is the method: as §1
5-HT6 receptor, sequence (P50406 whole entry): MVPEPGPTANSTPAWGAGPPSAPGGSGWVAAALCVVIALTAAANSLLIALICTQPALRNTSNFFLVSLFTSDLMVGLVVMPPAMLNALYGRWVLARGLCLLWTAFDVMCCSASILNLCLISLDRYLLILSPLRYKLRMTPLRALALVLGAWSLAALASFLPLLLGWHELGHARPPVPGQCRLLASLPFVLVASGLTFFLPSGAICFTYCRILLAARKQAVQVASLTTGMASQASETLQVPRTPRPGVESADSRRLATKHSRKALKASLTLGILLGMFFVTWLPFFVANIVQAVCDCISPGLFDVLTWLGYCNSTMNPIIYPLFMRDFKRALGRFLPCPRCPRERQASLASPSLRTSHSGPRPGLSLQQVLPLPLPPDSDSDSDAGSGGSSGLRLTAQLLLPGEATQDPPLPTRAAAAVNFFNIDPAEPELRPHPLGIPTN
Another assay concerns the target 5-HT5A receptor (Homo sapiens, UniProt P47898). Conditions: at 100×10^−7 M. Here is the method: as §1
Assay [5] deals with T2, 5-HT2B receptor. Here is the method:
as §1

The next assay has as its target Na channel. Kind of assay: Na channel binding. From the text:
[…]. […] […].
Those results are summarized at Table 9.

T2 sequence (P41595 whole entry): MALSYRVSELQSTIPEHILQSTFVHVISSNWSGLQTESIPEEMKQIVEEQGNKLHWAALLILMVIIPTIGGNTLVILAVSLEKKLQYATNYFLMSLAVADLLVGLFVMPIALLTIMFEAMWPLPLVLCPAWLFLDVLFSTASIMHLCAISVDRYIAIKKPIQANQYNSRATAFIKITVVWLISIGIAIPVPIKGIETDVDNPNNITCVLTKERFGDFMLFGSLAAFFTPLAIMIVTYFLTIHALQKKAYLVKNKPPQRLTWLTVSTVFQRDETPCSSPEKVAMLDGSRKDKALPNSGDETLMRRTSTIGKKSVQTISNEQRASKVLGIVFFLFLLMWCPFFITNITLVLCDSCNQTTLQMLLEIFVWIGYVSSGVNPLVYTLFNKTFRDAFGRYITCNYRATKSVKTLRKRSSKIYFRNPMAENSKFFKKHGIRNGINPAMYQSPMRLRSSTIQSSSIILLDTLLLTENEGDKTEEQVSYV
5-HT4E receptor, sequence (Q13639 1-378 isoform Q13639-5): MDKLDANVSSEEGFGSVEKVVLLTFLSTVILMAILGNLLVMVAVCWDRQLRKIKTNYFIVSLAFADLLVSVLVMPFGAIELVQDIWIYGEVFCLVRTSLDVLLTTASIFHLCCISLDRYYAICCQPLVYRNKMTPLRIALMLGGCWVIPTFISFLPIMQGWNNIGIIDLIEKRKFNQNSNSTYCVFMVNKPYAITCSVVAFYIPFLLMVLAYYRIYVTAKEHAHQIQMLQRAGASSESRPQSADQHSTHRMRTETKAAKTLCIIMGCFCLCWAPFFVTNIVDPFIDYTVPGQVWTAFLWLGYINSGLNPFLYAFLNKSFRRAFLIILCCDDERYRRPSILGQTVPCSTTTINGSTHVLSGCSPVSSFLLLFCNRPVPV
5-HT5A receptor, sequence (P47898 whole entry): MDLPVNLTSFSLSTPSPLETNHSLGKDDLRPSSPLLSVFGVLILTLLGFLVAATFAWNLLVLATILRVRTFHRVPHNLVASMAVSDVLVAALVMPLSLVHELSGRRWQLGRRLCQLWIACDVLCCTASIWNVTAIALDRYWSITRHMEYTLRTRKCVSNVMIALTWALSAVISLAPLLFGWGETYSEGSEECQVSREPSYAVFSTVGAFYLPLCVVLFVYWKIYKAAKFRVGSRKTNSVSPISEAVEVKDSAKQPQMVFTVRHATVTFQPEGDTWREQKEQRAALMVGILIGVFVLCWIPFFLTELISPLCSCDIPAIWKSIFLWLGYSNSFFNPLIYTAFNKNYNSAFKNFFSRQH
L-type calcium channel binding (CCB) site, sequence (P22002 whole entry): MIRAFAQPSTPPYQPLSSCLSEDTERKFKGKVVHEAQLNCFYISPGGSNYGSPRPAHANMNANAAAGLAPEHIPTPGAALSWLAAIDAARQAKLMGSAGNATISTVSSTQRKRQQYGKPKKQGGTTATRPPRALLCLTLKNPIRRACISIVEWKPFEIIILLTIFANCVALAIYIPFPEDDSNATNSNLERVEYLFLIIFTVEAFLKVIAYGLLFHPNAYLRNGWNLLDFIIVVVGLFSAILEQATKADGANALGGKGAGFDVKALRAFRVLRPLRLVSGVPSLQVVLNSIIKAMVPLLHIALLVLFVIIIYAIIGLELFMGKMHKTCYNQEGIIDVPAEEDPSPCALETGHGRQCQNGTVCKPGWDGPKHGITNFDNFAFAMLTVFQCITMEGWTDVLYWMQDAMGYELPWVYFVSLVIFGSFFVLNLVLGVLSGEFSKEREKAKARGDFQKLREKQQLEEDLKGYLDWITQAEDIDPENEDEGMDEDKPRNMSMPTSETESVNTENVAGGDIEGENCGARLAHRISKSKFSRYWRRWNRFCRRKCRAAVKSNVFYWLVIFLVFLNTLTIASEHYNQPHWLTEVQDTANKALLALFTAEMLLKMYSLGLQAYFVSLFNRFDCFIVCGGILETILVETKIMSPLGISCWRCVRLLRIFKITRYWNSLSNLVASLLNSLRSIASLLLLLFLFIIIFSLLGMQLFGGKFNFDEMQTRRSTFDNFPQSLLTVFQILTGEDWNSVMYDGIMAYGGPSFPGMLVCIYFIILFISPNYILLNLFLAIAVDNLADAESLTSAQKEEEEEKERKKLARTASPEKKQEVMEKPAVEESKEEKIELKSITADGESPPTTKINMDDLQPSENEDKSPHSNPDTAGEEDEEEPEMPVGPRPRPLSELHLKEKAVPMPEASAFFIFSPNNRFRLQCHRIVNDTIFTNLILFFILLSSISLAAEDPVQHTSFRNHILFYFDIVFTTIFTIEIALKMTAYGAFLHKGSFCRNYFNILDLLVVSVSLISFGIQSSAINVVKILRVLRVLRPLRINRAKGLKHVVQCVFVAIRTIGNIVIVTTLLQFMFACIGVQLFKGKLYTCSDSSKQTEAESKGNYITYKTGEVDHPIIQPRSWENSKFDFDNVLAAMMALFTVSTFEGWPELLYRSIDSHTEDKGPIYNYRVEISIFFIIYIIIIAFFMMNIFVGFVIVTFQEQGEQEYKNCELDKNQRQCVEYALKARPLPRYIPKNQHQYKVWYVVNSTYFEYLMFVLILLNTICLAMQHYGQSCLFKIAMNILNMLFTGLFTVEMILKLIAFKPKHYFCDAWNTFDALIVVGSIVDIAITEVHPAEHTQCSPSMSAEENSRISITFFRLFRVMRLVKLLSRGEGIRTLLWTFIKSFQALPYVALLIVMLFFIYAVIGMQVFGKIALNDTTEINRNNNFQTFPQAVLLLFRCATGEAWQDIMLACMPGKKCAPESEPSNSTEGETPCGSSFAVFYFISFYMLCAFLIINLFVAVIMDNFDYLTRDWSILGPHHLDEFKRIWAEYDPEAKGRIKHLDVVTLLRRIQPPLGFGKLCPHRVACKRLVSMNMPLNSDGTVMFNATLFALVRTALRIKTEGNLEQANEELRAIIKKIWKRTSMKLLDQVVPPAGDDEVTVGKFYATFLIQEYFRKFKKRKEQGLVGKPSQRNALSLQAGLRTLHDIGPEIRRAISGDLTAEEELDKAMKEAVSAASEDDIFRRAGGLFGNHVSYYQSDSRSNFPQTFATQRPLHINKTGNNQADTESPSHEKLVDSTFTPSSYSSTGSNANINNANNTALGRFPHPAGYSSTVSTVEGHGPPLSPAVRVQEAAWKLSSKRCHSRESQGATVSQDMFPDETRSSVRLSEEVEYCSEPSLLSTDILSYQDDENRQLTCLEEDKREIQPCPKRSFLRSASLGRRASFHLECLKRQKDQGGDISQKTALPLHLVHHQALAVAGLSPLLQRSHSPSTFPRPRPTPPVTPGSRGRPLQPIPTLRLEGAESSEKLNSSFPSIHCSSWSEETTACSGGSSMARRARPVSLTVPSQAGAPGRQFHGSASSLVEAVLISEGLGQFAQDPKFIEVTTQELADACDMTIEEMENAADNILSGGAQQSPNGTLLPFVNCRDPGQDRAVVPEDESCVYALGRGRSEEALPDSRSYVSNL

Take `COc1ccc([C@@H]2Sc3ccccc3N(CCN(C)C)C(=O)[C@@H]2OC(C)=O)cc1` [Diltiazem]: the “percentage of binding, ML-1” value in the assay with melatonin ML-1 [1] (at 100×10^−7 M) is given as >100(9%).
For `COC(=O)C1=C(C)NC(C)=C(C(=O)OC(C)C)C1c1cccc2nonc12` (centres unmarked) [Isradipine], at melatonin ML-1 [2], the “(IC50: ML-1)/(IC50: CCB)” value is 4,348. Besides, the IC50 (in general, the midpoint of a concentration-inhibition curve) on melatonin ML-1 [1] (chicken brain) stood at 2 µM; in [4], 0.00046 µM. Also, at 5-HT2B receptor [3], the “(IC50: 5-HT2B)/(IC50: CCB)” value is reported as 21,739.
Regarding `COc1ccc(CCN(C)CCC[C@](C#N)(c2ccc(OC)c(OC)c2)C(C)C)cc1OC` [(R)-verapamil], the “percentage of binding, 5-HT4E” value on 5-HT4E receptor is listed as >100(24%). Besides, the “percentage of binding, 5-HT1D” value on 5-HT1D receptor is recorded as >100(17%). Besides, the “percentage of binding, 5-HT6” value at 5-HT6 receptor is reported as >100(47%). Besides, on 5-HT5A receptor, the “percentage of binding, 5-HT5A” value is given as >100(19%). The “% Binding, 5-HT2B” value at 5-HT2B receptor [5] (at 0.1 (×10^−7 M)) is 0%; on 5-HT2B receptor [5] (at 0.3 (×10^−7 M)), 10%; at 5-HT2B receptor [5] (at 1.0 (×10^−7 M)), 39%; at 5-HT2B receptor [5] (at 3.0 (×10^−7 M)), 68%. The compound further came in with an IC50 on Na channel of 1.8 µM.
